Data from ChEMBL document CHEMBL5465560, “Selectivity Literature for EUbOPEN Chemogenomic Library” (2024).

Columns and labels:
[1] = biological target: Macrophage colony-stimulating factor 1 receptor (Homo sapiens) (UniProt P07333); test: Selectivity interaction (KinomeScan (DiscoverX)) EUB0000595a CSF1R; settings: at 10 µM
[2] = biological target: Casein kinase I isoform epsilon (Homo sapiens, UniProt P49674); settings: at 10 µM
[3] = biological target: Mitotic checkpoint serine/threonine-protein kinase BUB1 (Homo sapiens, UniProt O43683); test: Selectivity interaction (KinomeScan (DiscoverX)) EUB0001079a BUB1; settings: at 1 µM
[4] = biological target: Mitogen-activated protein kinase 9 (Homo sapiens, UniProt P45984); test: Selectivity interaction (KinomeScan (DiscoverX)) EUB0000666a MAPK9; settings: at 10 µM
[5] = biological target: Dual specificity testis-specific protein kinase 1 (Homo sapiens) (UniProt Q15569); settings: at 10 µM
[6] = biological target: Serine/threonine-protein kinase MARK1 (Homo sapiens) (UniProt Q9P0L2); test: Selectivity interaction (KinomeScan (DiscoverX)) EUB0001049a MARK1; settings: at 1 µM
[7] = biological target: Tyrosine-protein kinase Fgr (Homo sapiens) (UniProt P09769); test: Selectivity interaction (Millipore kinase profiler) EUB0000124b FGR; settings: at 10 µM
Sequence of Tyrosine-protein kinase Fgr (Homo sapiens) (P09769 2-529 limits assumed): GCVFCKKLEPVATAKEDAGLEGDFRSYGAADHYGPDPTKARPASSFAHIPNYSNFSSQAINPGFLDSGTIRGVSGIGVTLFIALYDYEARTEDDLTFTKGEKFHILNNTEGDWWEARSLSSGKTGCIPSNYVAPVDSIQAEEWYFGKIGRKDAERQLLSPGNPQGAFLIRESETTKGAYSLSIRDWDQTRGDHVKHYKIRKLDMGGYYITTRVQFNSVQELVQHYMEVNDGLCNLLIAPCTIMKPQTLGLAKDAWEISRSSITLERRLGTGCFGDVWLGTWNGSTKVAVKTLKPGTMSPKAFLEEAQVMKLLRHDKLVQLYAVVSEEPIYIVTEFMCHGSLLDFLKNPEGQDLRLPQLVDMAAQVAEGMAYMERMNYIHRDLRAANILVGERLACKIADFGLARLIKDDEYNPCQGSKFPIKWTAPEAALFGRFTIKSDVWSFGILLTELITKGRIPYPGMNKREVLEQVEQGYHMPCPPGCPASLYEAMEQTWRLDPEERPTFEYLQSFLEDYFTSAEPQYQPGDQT

[8] = biological target: Casein kinase I isoform gamma-1 (Homo sapiens) (UniProt Q9HCP0); test: Selectivity interaction (Upstate Kinase Profiler service (Millipore)) EUB0000056c CSNK1G1; settings: at 1 µM
Sequence of Casein kinase I isoform gamma-1 (Homo sapiens) (Q9HCP0 whole entry, looked up, canonical isoform): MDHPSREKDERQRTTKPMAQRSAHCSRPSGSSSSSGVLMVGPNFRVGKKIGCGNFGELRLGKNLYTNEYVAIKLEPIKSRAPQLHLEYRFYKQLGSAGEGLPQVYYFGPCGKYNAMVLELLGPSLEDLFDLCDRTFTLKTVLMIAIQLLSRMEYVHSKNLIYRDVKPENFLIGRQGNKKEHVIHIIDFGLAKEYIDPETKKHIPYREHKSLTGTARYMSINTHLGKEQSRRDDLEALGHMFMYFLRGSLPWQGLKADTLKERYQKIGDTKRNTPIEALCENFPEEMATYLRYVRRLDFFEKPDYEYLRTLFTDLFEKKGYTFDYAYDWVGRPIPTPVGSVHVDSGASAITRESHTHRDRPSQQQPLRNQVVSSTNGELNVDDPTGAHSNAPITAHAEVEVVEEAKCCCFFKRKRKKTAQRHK

[9] = biological target: TRAF2 and NCK-interacting protein kinase (Homo sapiens) (UniProt Q9UKE5); test: Selectivity interaction (KinomeScan (DiscoverX)) EUB0001619a TNIK; settings: at 1 µM
Sequence of TRAF2 and NCK-interacting protein kinase (Homo sapiens) (Q9UKE5 whole entry, looked up): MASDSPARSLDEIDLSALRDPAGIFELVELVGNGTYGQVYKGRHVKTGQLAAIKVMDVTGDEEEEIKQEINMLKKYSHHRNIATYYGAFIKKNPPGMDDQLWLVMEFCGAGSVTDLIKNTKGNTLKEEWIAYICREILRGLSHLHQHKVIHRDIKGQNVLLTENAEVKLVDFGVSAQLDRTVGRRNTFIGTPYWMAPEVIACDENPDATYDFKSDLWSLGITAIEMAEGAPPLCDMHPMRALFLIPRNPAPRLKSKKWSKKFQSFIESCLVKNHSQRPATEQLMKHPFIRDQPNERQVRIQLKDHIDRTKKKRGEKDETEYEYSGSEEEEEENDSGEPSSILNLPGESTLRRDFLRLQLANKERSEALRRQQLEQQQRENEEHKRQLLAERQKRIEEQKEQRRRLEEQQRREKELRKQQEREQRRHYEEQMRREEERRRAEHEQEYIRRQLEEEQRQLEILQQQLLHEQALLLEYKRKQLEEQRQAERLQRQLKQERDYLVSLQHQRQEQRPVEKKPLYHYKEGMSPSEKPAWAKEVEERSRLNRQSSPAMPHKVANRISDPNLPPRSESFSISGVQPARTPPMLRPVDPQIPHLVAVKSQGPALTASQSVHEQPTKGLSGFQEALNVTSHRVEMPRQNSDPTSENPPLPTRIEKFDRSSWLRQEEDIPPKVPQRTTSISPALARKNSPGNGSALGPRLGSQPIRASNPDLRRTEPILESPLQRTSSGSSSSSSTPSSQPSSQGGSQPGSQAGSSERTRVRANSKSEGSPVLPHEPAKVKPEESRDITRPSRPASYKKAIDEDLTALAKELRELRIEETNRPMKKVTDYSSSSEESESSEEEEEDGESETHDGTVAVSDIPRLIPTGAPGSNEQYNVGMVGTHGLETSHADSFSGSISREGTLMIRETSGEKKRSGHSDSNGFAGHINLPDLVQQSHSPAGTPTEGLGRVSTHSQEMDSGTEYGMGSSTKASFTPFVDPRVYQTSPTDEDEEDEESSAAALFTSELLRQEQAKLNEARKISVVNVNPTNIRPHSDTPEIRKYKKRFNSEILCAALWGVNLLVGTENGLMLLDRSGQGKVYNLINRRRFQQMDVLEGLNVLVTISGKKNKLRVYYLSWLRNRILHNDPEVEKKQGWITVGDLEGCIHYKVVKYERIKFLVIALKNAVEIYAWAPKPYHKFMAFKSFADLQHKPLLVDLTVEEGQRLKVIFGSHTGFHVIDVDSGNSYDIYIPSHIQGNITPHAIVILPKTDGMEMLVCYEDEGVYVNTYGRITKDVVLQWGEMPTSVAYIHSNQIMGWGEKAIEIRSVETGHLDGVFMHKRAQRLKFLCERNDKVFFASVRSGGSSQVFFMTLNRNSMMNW

[10] = biological target: T1, Aurora kinase A (Homo sapiens) (UniProt O14965); test: Selectivity interaction (Kinase panel (DSF assay)) EUB0001558a STK6
T1 sequence (whole entry): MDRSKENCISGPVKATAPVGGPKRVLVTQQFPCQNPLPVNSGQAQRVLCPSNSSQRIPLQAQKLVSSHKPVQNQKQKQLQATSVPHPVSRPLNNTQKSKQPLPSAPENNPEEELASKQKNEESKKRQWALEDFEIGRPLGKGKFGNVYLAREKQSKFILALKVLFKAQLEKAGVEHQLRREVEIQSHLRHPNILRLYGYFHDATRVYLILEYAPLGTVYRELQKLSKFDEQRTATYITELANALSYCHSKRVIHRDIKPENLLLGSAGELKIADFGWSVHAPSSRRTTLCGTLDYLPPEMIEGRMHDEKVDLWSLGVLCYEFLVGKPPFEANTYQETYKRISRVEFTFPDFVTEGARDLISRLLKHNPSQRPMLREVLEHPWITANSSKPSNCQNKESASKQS

[11] = biological target: Acetylcholine receptor subunit alpha (Homo sapiens, UniProt P02708); test: Selectivity interaction (Panel of kinases, GPCRs, ion channels and transporters (enzymatic assay)) EUB0000266bCl CHRNA1
Sequence of Acetylcholine receptor subunit alpha (P02708 whole entry): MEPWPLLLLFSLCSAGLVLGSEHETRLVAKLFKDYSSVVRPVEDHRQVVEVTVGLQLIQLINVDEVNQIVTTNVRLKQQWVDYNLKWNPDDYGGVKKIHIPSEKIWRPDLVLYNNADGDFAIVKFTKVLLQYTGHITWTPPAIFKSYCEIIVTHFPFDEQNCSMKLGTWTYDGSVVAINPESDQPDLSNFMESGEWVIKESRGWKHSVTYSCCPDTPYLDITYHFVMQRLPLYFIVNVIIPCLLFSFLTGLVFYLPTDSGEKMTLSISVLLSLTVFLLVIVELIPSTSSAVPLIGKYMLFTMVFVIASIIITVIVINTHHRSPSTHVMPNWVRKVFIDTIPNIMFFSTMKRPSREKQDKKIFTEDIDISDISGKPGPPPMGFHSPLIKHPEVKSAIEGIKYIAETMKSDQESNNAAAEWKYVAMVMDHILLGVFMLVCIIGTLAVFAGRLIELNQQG

[12] = biological target: Serine/threonine-protein kinase B-raf (Homo sapiens) (UniProt P15056); test: Selectivity interaction (Kinase panel (Invitrogen)) EUB0000639a BRAF; settings: at 200 nM
Sequence of Serine/threonine-protein kinase B-raf (Homo sapiens) (P15056 whole entry): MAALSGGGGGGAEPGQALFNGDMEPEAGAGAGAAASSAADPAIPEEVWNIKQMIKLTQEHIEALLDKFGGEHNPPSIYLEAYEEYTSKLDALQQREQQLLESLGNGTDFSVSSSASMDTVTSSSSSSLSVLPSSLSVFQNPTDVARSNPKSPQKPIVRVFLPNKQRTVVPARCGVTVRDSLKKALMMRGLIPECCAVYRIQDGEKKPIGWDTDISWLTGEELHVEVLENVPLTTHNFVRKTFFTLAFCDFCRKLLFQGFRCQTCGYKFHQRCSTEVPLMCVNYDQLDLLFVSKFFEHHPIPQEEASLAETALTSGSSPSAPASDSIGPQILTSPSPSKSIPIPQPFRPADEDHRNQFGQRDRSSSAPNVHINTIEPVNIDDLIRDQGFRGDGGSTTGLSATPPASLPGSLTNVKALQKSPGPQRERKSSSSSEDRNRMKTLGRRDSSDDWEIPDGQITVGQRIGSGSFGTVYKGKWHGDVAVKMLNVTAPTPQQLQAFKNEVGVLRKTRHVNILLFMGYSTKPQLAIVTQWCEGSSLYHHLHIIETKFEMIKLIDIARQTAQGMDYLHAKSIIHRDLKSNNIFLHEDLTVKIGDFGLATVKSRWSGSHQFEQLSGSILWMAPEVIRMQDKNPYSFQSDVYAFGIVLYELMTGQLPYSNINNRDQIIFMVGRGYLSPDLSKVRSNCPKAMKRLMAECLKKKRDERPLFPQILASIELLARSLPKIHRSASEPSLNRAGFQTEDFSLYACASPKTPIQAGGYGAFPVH

[13] = biological target: Calcium/calmodulin-dependent protein kinase type II subunit beta (Homo sapiens) (UniProt Q13554); test: Selectivity interaction (ActivX KiNativ screen (kinase selectivity in THP-1 cell lysates)) EUB0000639a CAMK2B; format: subcellular; settings: lysate, at 1 µM
[14] = biological target: Cyclin-dependent kinase 11B (Homo sapiens) (UniProt P21127); test: Selectivity interaction (KinomeScan (DiscoverX)) EUB0000092b CDK11B; settings: at 10 µM
Sequence of Cyclin-dependent kinase 11B (Homo sapiens) (P21127 whole entry): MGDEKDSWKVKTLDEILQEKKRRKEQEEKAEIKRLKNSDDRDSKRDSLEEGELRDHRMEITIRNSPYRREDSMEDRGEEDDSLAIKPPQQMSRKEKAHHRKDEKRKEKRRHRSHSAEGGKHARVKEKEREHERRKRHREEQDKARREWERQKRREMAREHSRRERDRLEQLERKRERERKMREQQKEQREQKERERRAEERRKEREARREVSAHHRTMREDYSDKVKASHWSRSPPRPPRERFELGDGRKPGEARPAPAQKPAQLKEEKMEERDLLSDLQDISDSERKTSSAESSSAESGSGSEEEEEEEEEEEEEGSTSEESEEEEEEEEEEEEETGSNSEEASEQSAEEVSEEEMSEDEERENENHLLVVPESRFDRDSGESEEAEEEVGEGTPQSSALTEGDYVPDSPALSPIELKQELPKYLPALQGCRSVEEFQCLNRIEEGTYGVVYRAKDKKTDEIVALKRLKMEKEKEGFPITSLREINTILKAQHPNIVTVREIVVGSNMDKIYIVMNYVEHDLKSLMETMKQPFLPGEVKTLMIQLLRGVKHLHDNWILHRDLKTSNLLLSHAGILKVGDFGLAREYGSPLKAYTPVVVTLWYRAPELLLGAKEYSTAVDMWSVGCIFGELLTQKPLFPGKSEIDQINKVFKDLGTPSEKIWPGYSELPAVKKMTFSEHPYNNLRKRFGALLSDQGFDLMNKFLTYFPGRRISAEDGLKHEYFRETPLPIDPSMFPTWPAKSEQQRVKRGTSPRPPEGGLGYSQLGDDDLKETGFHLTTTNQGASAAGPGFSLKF

[15] = biological target: T2, Serine/threonine-protein kinase TAO2 (Homo sapiens) (UniProt Q9UL54); test: Selectivity interaction (KinomeScan (DiscoverX)) EUB0000092b TAOK2; settings: at 10 µM
T2 sequence (whole entry): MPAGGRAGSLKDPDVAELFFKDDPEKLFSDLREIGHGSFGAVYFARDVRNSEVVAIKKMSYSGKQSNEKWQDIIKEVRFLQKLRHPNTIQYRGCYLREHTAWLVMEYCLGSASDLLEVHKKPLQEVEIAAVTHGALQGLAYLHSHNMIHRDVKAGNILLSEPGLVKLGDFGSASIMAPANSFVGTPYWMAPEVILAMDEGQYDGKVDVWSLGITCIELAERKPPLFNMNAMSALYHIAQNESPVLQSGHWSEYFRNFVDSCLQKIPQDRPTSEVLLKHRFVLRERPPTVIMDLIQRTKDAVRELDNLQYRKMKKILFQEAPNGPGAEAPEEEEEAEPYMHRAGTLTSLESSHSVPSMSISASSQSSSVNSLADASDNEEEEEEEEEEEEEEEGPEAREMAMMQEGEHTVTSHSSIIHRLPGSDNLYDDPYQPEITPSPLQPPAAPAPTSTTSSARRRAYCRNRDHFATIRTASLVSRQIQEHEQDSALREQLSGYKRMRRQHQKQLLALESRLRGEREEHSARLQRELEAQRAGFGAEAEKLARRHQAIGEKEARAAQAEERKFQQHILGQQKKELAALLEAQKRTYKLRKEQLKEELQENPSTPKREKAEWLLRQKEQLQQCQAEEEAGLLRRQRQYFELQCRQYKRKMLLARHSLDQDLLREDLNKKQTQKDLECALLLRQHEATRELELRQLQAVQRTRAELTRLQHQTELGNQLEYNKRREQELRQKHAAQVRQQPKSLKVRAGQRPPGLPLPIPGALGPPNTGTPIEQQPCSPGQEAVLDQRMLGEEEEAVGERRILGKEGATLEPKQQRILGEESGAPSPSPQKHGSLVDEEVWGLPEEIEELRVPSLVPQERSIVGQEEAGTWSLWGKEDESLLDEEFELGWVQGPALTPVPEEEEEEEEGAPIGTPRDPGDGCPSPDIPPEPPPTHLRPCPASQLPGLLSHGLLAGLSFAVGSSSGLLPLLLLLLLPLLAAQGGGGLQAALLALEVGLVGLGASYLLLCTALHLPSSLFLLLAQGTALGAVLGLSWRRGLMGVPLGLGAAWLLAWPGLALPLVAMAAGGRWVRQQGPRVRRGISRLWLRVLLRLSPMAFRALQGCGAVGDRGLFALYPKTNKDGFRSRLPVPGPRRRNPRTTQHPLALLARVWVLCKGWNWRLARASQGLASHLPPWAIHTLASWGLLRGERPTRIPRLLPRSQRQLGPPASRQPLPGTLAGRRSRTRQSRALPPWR

[16] = biological target: Protein kinase C eta type (Homo sapiens) (UniProt P24723); test: Selectivity interaction (Ambit KINOMEscan and KiNATiv profiling in Jurkat cells) EUB0000090b PRKCH; format: cell-based; settings: at 1 µM

Sequence of Casein kinase I isoform epsilon (P49674 whole entry, looked up, canonical isoform): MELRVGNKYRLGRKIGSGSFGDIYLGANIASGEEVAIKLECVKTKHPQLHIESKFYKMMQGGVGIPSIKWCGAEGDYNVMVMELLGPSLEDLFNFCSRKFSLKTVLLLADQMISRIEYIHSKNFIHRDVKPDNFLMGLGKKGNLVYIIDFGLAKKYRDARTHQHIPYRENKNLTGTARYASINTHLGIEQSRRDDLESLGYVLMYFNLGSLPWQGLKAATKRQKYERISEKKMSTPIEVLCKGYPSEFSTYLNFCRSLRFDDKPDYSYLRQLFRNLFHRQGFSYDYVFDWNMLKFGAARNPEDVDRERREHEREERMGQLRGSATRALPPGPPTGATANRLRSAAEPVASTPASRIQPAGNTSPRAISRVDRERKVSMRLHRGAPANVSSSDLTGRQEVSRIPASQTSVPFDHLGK

Question: What does the source list for `COCC(=O)NC/C=C/c1ccc2ncnc(Nc3ccc(Oc4ccc(C)nc4)c(C)c3)c2c1` [CP-724714]?
Answer: % of control [1]: 100%; % of control [2]: 100%

Question: With `Nc1cnc(N2CCc3cc(S(=O)(=O)Nc4c(F)cc(Cl)cc4F)cc(N4CCCC4=O)c32)nc1` [TP-020n] as the molecule, how does the % of control [3] read?
Answer: 100%

Question: `O=C(NOC[C@H](O)CO)c1ccc(F)c(F)c1Nc1ccc(I)cc1F` was tested. Which % of control [4] did it give?
Answer: 88%

Question: With `Cc1cc([C@@H](C)Nc2ccccc2C(=O)O)c2nc(N3CCOCC3)cc(=O)n2c1` [AZD-6482] as the molecule, how does the % of control [5] read?
Answer: 100%

Question: Which % of control [6] does the source give for `COc1cc(Nc2nc(C)cc(-c3cnn4nc(OC)ccc34)n2)cc(C(F)(F)F)c1` here?
Answer: 98%

Question: How did the % of control [7] turn out when `CC(=O)Nc1cccc(-n2c(=O)n(C3CC3)c(=O)c3c(Nc4ccc(I)cc4F)n(C)c(=O)c(C)c32)c1` was run?
Answer: 86%

Question: `Cc1ccc(-c2ccc3c(ccc4sc5c(c43)NC[C@@H](C)NC5=O)n2)cn1` was tested. Which % of inhibition [8] did it give?
Answer: 23%

Question: With `N#Cc1cccc(-c2c[nH]c3ncnc(N4CCOCC4)c23)c1` as the molecule, how does the % of control [9] read?
Answer: 45%

Question: With `CC(C)(O)[C@H](F)CN1Cc2cc(NC(=O)c3cnn4cccnc34)c(N3CCOCC3)cc2C1=O` as the molecule, how does the dTM [10] read?
Answer: 3.3 K

Question: Which pXC50 [11] does the source give for `CCn1c(-c2nc3cc(C(=O)N4CCCC(N)C4)ccc3n2C)cc2ccccc21` (stereo unspecified) here?
Answer: < 4.8 M

Question: Which results are given for `CC[C@@H]1[C@H](F)C(=O)N[C@@H]1COc1nccc2cc(C(N)=O)c(OC)cc12` [ZIMLOVISERTIB]?
Answer: % of inhibition [12]: 28.7%; % of inhibition [13]: 10%

Question: With `CCC(=O)N1CCN(c2ccc(-n3c(=O)ccc4cnc5ccc(-c6cnc7ccccc7c6)cc5c43)cc2C(F)(F)F)CC1` as the molecule, how does the % of control [14] read?
Answer: 97%

Question: And the % of control [15]?
Answer: 84%

Question: `CN(C)C/C=C/C(=O)Nc1ccc(C(=O)N2CCCC(Nc3ncc(Cl)c(-c4c[nH]c5ccccc45)n3)C2)cc1` (stereo unspecified) was tested. Which % of control [16] did it give?
Answer: 91%
